Data published in US10252977B2, “Halogen-substituted phenoxyphenylamidines and the use thereof as fungicides” (priority 2015, dated 2019).
Read-outs that look alike come from different tables or passages of the source.

How the values were obtained:
[1] = Hydrolysis stability test in homogeneous aqueous solution; format: physicochemical; conditions: 50° C., 24 hours, first order degradation assumed
Experimental: The chemical stability towards hydrolysis of the phenylamidines described in the prior art is good but an improved stability may be an advantage during the preparation and formulation processes in a large scale. The improved stability towards hydrolysis was proven by a hydrolysis stability test as described below: To produce a suitable preparation of active compound for the hydrolysis stability test, a 1000 ppm stock solution (1 mg/mL) of active compound in acetonitrile is prepared. Three aliquots of 100 μL are pipetted into HPLC vials and diluted with 750 μL acetonitrile. In each vial 850 μL of the appropriate buffer solution (pH4, pH7 and pH9, CertiPUR, Fa. Merck) is added. The buffer containing HPLC vials are incubated in a heated sample tray at 50° C. for 24 hours. The amount A of the active compound is analyzed by HPLC (UV-peak areas at 210 nm) at eight points in time t: 0 min, 140 min, 350 min, 560 min, 770 min, 980 min, 1190 min, 1400 min. The half-life time (T1/2) of each active compound is calculated via linear regression by using the following equations (first order degradation assumed): In table III the results of the hydrolysis stability test are shown for the compounds (I-01), (I-02), (I-03), (I-04) and (I-05) at various pH-values. […] 337 known from WO2008/110278. […] This increased stability will be of advantage during the preparation and formulation processes in a large scale compared to known amidines. The data are to be seen merely by way of example and are not limiting for the purposes of the invention.

soy bean plants = assay: Plant compatibility test using soy bean plants; format: in vivo; conditions: soy bean young plants sprayed at 1000 ppm, evaluated 6 days after application; 0% no damages, 100% totally damaged
Experimental: Plant Compatibility Test Using Soy Bean Plants • Solvent: 24.5 parts by weight of acetone • 24.5 parts by weight of dimethylacetamide • Emulsifier: 1 part by weight of alkylaryl polyglycol ether To produce a suitable preparation of active compound, 1 part by weight of active compound is mixed with the stated amounts of solvent and emulsifier, and the concentrate is diluted with water to the desired concentration. Young plants are sprayed with the preparation of active compound at the stated application rate. The plants are then placed in a greenhouse at approximately 21° C. and a relative atmospheric humidity of approximately 80%. The test is evaluated 6 days after application and comprises plant damages like leaf deformation, chlorosis, necrosis, shoot damage or stunting. The results are summarized in table V. 0% means no damages are observed, while 100% means that the plants are totally damaged.

[2] = Photolysis stability test; format: physicochemical; conditions: dried film in MTP, irradiated at 30° C. and 480 W/m^2, up to 24 h, first order degradation assumed
Experimental: The stability towards photolysis of the phenylamidines described in the prior art is good but an improved stability towards photolysis may be an advantage as it could offer a longer lasting efficacy when applied to plants by foliar application. The improved stability towards photolysis was proven by a […] stability test as described below:
To produce a suitable preparation of active compound for the photolysis stability test, a 1000 ppm stock solution (1 mg/mL) of active compound in acetonitrile is prepared. Aliquots of 25 μL of this stock solution are pipetted in three wells of a Bio-one microtiter plate (MTP) UVStar 96 (Fa. Greiner, Art. No. 655801). The MTP is dried overnight in the dark and then irradiated at 30° C. and 480 W/m^2 with a UV irradiation device SUNTEST XLS+ or SUNTEST CPS (Fa. Atlas). The amount A of the active compound is analyzed by HPLC (UV-peak areas at 210 nm) at five points in time t: 0 h, 2 h, 4 h, 6 h, 24 h by using the following method: 200 μL acetonitrile is added in the respective well of the MTP and the MTP is sealed with a Bio-one sealing foil, viewseal 80/140 mm (Fa. Greiner, Art. No. 676070). The MTPs are sonicated for 3 minutes and analysed by HPLC. The half-life time (T1/2) of each active compound is calculated via linear regression by using the following equations (first order degradation assumed): […]
In table IV the results of the photolysis stability test are shown for the compounds (I-01) and (I-02). […] This increased chemical stability towards photolysis will be of advantage as it will offer a longer lasting efficacy when applied to plants by foliar application compared to known amidines. The data are to be seen merely by way of example and are not limiting for the purposes of the invention.

[3] = Log P by HPLC on reversed phase columns (EEC directive 79/831 Annex V.A8); format: physicochemical; conditions: LC-UV
Experimental: Measurement of Log P values was performed according to EEC directive 79/831 Annex V.A8 by HPLC (High Performance Liquid Chromatography) on reversed phase columns with the following methods: • ^[a] Log P value is determined by measurement of LC-UV, in an acidic range, with 0.1% formic acid in water and acetonitrile as eluent (linear gradient from 10% acetonitrile to 95% acetonitrile). • [b] Log P value is determined by measurement of LC-UV, in a neutral range, with 0.001 molar ammonium acetate solution in water and acetonitrile as eluent (linear gradient from 10% acetonitrile to 95% acetonitrile). […] Lambda-max-values were determined using UV-spectra from 200 nm to 400 nm and the peak values of the chromatographic signals.

Phakopsora pachyrhizi = assay: In vivo preventive test on Phakopsora (soybeans); conditions: 7 days after inoculation
Experimental: To produce a suitable preparation of active compound, 1 part by weight of active compound is mixed with the stated amounts of solvent and emulsifier, and the concentrate is diluted with water to the desired concentration. To test for preventive activity, young plants are sprayed with the preparation of active compound at the stated rate of application. After the spray coating has dried on, the plants are inoculated with an aqueous spore suspension of the causal agent of soybean rust (Phakopsora pachyrhizi) and stay for 24 h without light in an incubation cabinet at approximately 24° C. and a relative atmospheric humidity of 95%. The plants remain in the incubation cabinet at approximately 24° C. and a relative atmospheric humidity of approximately 80% and a day/night interval of 12 h.

Puccinia recondita = assay: In vivo preventive test on Puccinia recondita (brown rust on wheat); conditions: 500 ppm of active ingredient, 11 days after inoculation
Experimental: (§1) • Solvent: 5% by volume of Dimethyl sulfoxide • 10% by volume of Acetone • Emulsifier: 1 μl of Tween® 80 per mg of active ingredient
(§2) The active ingredients are made soluble and homogenized in a mixture of Dimethyl sulfoxide/Acetone//Tween® 80 and then diluted in water to the desired concentration.
(§3) The young plants of wheat are treated by spraying the active ingredient prepared as described above. Control plants are treated only with an aqueous solution of Acetone/Dimethyl sulfoxide/Tween® 80.
After 24 hours, the plants are contaminated by spraying the leaves with an aqueous suspension of Puccinia recondita spores. The contaminated wheat plants are incubated for 24 hours at 20° C. and at 100% relative humidity and then for 10 days at 20° C. and at 70-80% relative humidity.
The test is evaluated 11 days after the inoculation. 0% means an efficacy which corresponds to that of the control plants while an efficacy of 100% means that no disease is observed.

Pyrenophora teres = assay: In vivo preventive test on Pyrenophora teres (net blotch on barley); conditions: 500 ppm of active ingredient, 14 days after inoculation
Experimental: as §1, §2
The young plants of barley are treated by spraying the active ingredient prepared as described above. Control plants are treated only with an aqueous solution of Acetone/Dimethyl sulfoxide/Tween® 80.
After 24 hours, the plants are contaminated by spraying the leaves with an aqueous suspension of Pyrenophora teres spores. The contaminated barley plants are incubated for 48 hours at 20° C. and at 100% relative humidity and then for 12 days at 20° C. and at 70-80% relative humidity.
The test is evaluated 14 days after the inoculation. 0% means an efficacy which corresponds to that of the control plants while an efficacy of 100% means that no disease is observed.

Septoria tritici = assay: In vivo preventive test on Septoria tritici (leaf spot on wheat); conditions: 500 ppm of active ingredient, 24 days after inoculation
Experimental: as §1, §2, §3
After 24 hours, the plants are contaminated by spraying the leaves with an aqueous suspension of Septoria tritici spores. The contaminated wheat plants are incubated for 72 hours at 18° C. and at 100% relative humidity and then for 21 days at 20° C. and at 90% relative humidity.
The test is evaluated 24 days after the inoculation. 0% means an efficacy which corresponds to that of the control plants while an efficacy of 100% means that no disease is observed.

[4] = buffer pH 7/acetonitrile, read-out: T1/2 (pH 7) (converted)
[5] = buffer pH 9/acetonitrile, read-out: T1/2 (pH 9) (converted)
[6] = acidic range, 0.1% formic acid in water and acetonitrile as eluent, read-out: LogP [a]
[7] = neutral range, 0.001 molar ammonium acetate solution in water and acetonitrile as eluent, read-out: LogP [b]

SMILES	half-life at 58.8 µg/mL [1, 4]	half-life at 58.8 µg/mL [1, 5]	half-life [2]	chromatographic logP [3, 6]	also measured
CCN(C)/C=N/c1cc(C)c(Oc2ccccc2)cc1C [Compound no. 1 known from WO2008/110313, reference compound]	24 h	16 h	10 h	–	Necrosis in % (soy bean plants): 90%
CCN(C)/C=N/c1cc(Cl)c(Oc2ccccc2F)cc1C [Example I-01, N′-[5-chloro-4-(2-fluorophenoxy)-2-methylphenyl]-N-ethyl-N-methylimidoformamide]	67 h	60 h	32 h	1.64	chromatographic logP [3, 7]: 4.56; efficacy (Phakopsora pachyrhizi; 100 ppm of active ingredient): at least 70%; Necrosis in % (soy bean plants): 50%
CCN(C)C=Nc1cc(Cl)c(Oc2ccccc2Br)cc1C [Example I-02, N′-[4-(2-bromophenoxy)-5-chloro-2-methylphenyl]-N-ethyl-N-methylimidoformamide]	70 h	64 h	> 200 h	1.86	efficacy (Puccinia recondita): at least 70%; chromatographic logP [3, 7]: 5.13; efficacy (Pyrenophora teres): at least 70%; efficacy (Phakopsora pachyrhizi; 10 ppm of active ingredient): at least 70%; efficacy (Septoria tritici): at least 70%
CCN(C)C=Nc1cc(Cl)c(Oc2ccccc2Cl)cc1C [Example I-03, N′-[5-chloro-4-(2-chlorophenoxy)-2-methylphenyl]-N-ethyl-N-methylimidoformamide]	63 h	53 h	59 h	1.55	–
Cc1cc(Oc2ccccc2Cl)c(Cl)cc1[N+](=O)[O-] [VI-03, 1-chloro-2-(2-chlorophenoxy)-4-methyl-5-nitrobenzene]	–	–	–	4.51	–
Cc1cc(Oc2ccccc2Br)c(C(F)(F)F)cc1[N+](=O)[O-] [VI-05, 1-(2-bromophenoxy)-5-methyl-4-nitro-2-(trifluoromethyl)benzene]	–	–	–	4.64	–

Continued, in another order:

half-life at 58.8 µg/mL [1, 4]	half-life at 58.8 µg/mL [1, 5]	half-life [2]	chromatographic logP [3, 6]	SMILES	also measured
83 h	74 h	> 200 h	1.72	CCN(C)C=Nc1cc(C(F)(F)F)c(Oc2ccccc2F)cc1C [Example I-04, N-ethyl-N′-[4-(2-fluorophenoxy)-2-methyl-5-(trifluoromethyl)phenyl]-N-methylimidoformamide]	–
80 h	66 h	> 200 h	1.9	CCN(C)C=Nc1cc(C(F)(F)F)c(Oc2ccccc2Br)cc1C [Example I-05, N′-[4-(2-bromophenoxy)-2-methyl-5-(trifluoromethyl)phenyl]-N-ethyl-N-methylimidoformamide]	–
61 h	55 h	34 h	1.81	CCN(C)C=Nc1cc(Cl)c(Oc2ccccc2I)cc1C [Example I-06, N′-[5-chloro-4-(2-iodophenoxy)-2-methylphenyl]-N-ethyl-N-methylimidoformamide]	–
–	–	–	3.37	Cc1cc(Oc2ccccc2Cl)c(Cl)cc1N [VIII-03, 5-chloro-4-(2-chlorophenoxy)-2-methylaniline]	–
–	–	–	3.68	Cc1cc(Oc2ccccc2Br)c(C(F)(F)F)cc1N [VIII-05, 4-(2-bromophenoxy)-2-methyl-5-(trifluoromethyl) aniline]	–
25 h	17 h	–	–	CCN(C)/C=N/c1cc(C)c(Oc2ccccc2F)cc1C [reference compound]	Necrosis in % (soy bean plants): 90%
